Measurements from patent US20220380430A1, “Non-Transgenic Functional Rescue of Neuropeptides” (Worcester Polytechnic Institute, priority 2021, published 2022).
No end group written: not given here.

Key:
flp-3 lof males [1] = assay: Single worm attraction assay (SWAA) to ascr #8 after FLP-3 peptide rescue-by-feeding; assay type: in vivo, C. elegans; conditions: flp-3 lof males raised on peptide; in words
Method: The outer forty wells of a 48-well suspension culture plate (Olympus Plastics, Cat #: 25-103) were seeded with 200 μL of standard NGM agar. To prepare the plates for the assay, they were acclimated to room temperature, at which point each well was seeded with 65 μL of OP50 E. coli. The assay plates were then transferred to a 37° C. incubator with the lid tilted for 4 h to allow the bacterial culture to dry on the agar. Once the bacterial culture dried, the lid was replaced the plate was stored at 20° C. until used in the assay. Fifty to sixty L4 worms were segregated by sex and stored at 20° C. for 5 h to overnight to be assayed as young adults. 0.8 μL of either vehicle control or ascaroside #8 was placed in the center of the well corresponding to that condition within the quadrant being tested, following a random block design (FIG. 11A). A single worm was placed in each of the 10 wells to be assayed, and the plate was transferred to a light source and camera and recorded for 15 m. This process was repeated for all four quadrants. Each strain and sex were assayed over five plates assayed on at least three different days. Raw dwell time values were calculated by subtracting the time a worm exited the cue (center of the well in spatial controls), from the time it entered, as in the SRA. This was determined per visit, and the average dwell time was calculated for each animal in the quadrant. Averages of the four-quadrant means were determined per plate, and a minimum of five plates were assayed per strain/condition. The mean raw dwell time across five plates was calculated and used for statistical analyses and graphical display. The average dwell time in the ascaroside was divided by the average dwell time within the vehicle control per plate to generate a fold-change. To transform the data, the log of this fold-change was taken, and the average log(fold-change) was used for statistical analyses and graphical display. […]

flp-3 lof males [2] = assay: Drop avoidance assay to ascr #8 after FLP-3 peptide rescue-by-feeding; assay type: in vivo, C. elegans; conditions: flp-3 lof males raised on peptide; 1 μM ascr #8; in words
Method: To identify which FLP-3 peptides are required for male avoidance of ascr #8, a peptide feeding approach https://www.nature.com/articles/s42003-021-02547-7-ref-CR59 was adopted, similar to RNAi feeding (FIG. 16A). Using Gateway Cloning technology, FLP-3 peptide coding sequences were inserted into a bacterial expression vector. As a control, first the FLP-3 peptides were tested that are still encoded in the ok3625 allele which are insufficient to drive the proper ascr #8 response in vivo: FLP-3-1 (SPLGTMRFamide) (SEQ ID NO: 10) and FLP-3-4 (NPLGTMRFamide) (SEQ ID NO: 11). Then flp-3 lof animals were reared on lawns of bacteria expressing the rescue constructs, and their progeny were assayed for avoidance (FIG. 16B-FIG. 16D).
Assays were performed as described previously in Chute, C. D. & Srinivasan, J. Semin. Cell Dev. Biol. 33, 18-24 (2014); Chute, C. D. et al. Nat. Commun. 10, 3186 (2019); and Hilliard, M. A. et al., EMBO J. 23, 1101-1111 (2004). Fifty to sixty L4 worms were segregated by sex and stored at 20° C. for 5 h to overnight to be assayed as young adults. One to four hours prior to the assay, the lids of unseeded plates were tilted to allow any excess moisture to evaporate off the plates. At the time of the assay, 10 or more animals were transferred onto each of the dried, unseeded plates. A drop of either water or 1 μM ascr #8 was placed on the tail of forward moving animals, and their response was scored as either an avoidance response, or no response. The total number of avoidances was divided by the total number of drops to generate an avoidance index for that plate. This was repeated for at least 10 plates over at least three different days.
SCRAMBLE control or FLP-3 peptide constructs were grown overnight in LB media containing […] ampicillin at 37° C. and diluted to an OD600 of 1.0 prior to seeding on NGM plates containing […] ampicillin and 1 mM IPTG. The 75 μL lawn was left to dry and grow overnight at room temperature before three L4 animals were placed on the plates. Males were selected for testing in the same manner as described above but were isolated onto plates also seeded with the same peptide on which they had been reared. Animals were then assayed using either the avoidance assay or single worm assay.

NSKLHRGGGRSRTSGSTGSMASHARGSPGLQ-NH2 [SCRAMBLE, scramble control peptide expressed in E. coli DH5α, negative control, reference compound]
rescue of attraction to ascr #8 (dwell time, log(fold-change)) (flp-3 lof males [1]): does not affect behavior | rescue of avoidance phenotype to ascr #8 (Avoidance Index) (flp-3 lof males [2]): does not affect behavior
